The results in this text go back to patent US6805870B1 (priority 1994, dated 2004).

Read-outs that look alike come from different tables or passages of the source.

The assay concerns VSV. It counts as in vivo, mouse.

`c1ccc([C@H]2CN3CCSC3=N2)cc1` [levamisole]: the “efficacy index (mean of at least 2 tests)” value reads like this: (mouse, in vivo) 0; (preparation dilution 1:4) “toxic”; (preparation dilution 1:8) 0; (preparation dilution 1:32) 0; (preparation dilution 1:64) 0; (preparation dilution 1:128) 0.
